In US7135307B2, “Gamma three protease” (Merck & Co., Inc., priority 2001, dated 2006):
Where a SMILES comes first, the peptide text is derived from it. [ ]: non-standard residue; d: D form. The star is where a group is joined. Sta = CC(C)C[C@H](N)[C@@H](O)CC(=O)O; Isovaleryl = CC(C)CC(=O)*

Legend:
Type in all cases: biochemical
[1] = system: γ-secretase activity associated with presenilin-1/presenilin-2; experiment: γ-secretase activity in HeLa S3 cell membranes, C100Flag substrate, ECL detection of Aβ
[2] = system: γ3 protease; experiment: γ3 protease activity in HeLa S3 cell membranes, C100Flag substrate, ECL detection of Aβ
Excerpt: The source of γ3 protease was a membrane preparation from HeLa S3 cells prepared as in Example 9. The production of the γ3 protease substrate and the conditions for cleavage are described in Example 10. The procedure for determining whether the substrate had been cleaved by γ3 protease was as in Example 6.
(§1) Aβ peptides were detected using a sandwich assay employing an antibody to capture the peptide and an antibody to detect the presence of the peptide. Detection was achieved by using electrochemiluminescence (ECL) (Yang et al., 1994, Bio/Technology 12:193–194; Khorkova et al., 1998, J. Neurosci. Meth. 82:159–166) and an Origen 1.5 Analyzer (Igen Inc., Gaithersburg, Md.).
(§2) Capture was performed using the 4G8 murine monoclonal antibody (Senetek PLC, Maryland Heights, Mo.). The 4G8 murine monoclonal antibody binds an epitope in the Aβ peptide (about amino acids 18–21 of SEQ.ID.NO.:3) that is immediately distal to the α-secretase cleavage site. The 4G8 monoclonal antibody was biotinylated with Biotin-LC-Sulfo-NHS-Ester (Igen Inc., Gaithersburg, Md.).
Detection was achieved using the G2-10 murine monoclonal antibody and the FCA3542 rabbit antibody. […]
The G2-10 and FCA3542 antibodies were ruthenylated with TAG-NHS Ester (Igen Inc., Gaithersburg, Md.). Aβ(x-40) was detected with biotinylated 4G8 and ruthenylated G2-10. Aβ(x-42) was detected with biotinylated 4G8 and ruthenylated FCA3542. […]

[3] = system: γ-secretase activity associated with presenilins 1 and 2; experiment: γ-secretase activity in ES-PBD18 membranes (wild-type mouse embryonic stem cells), generation of Aβ1-40 and Aβ1-42; details: 1 μM inhibitor, FIG. 2A, 2B
Procedure: The presence of γ3 protease activity having a pH optimum of about 6 is clearly seen. […] Again, the presence of γ3 protease activity having a pH optimum of about 6 is clearly seen. The source of γ3 protease was ES-PBD18 membranes. ES-PBD18 membranes were prepared from wild-type mouse embryonic stem cells according to the procedure of Example 11.
(§3) Another method for product detection, employing electrochemiluminescence with a capture antibody and an antibody specific for either Aβ1-40 or Aβ1-42, is described in Example 6 below.
as §1
• 1. […]

[4] = system: γ3 protease; experiment: Inhibition of γ3 protease production of Aβ peptides by pepstatin A, ECL detection
Excerpt: as §3, §1, §2
Detection was achieved using the G2-10 murine monoclonal antibody and the FCA3542 rabbit antibody. The G2-10 murine monoclonal antibody (provided by K. Beyreuther, University of Heidelberg, Germany) binds the C-terminus that is exposed after γ3 protease-mediated cleavage to generate amino acid 40 of the Aβ1-40 peptide. (Ida et al., 1996, J. Biol. Chem. 271:22908–22914). The FCA3542 rabbit antibody (provided by F. Checler, IPMC du CNRS, Valbonne, France) binds the C-terminus that is exposed after γ3 protease-mediated cleavage to generate amino acid 42 of the Aβ1-42 peptide. (Barelli et al., 1997, Mol. Med. 3:695–707.)
The G2-10 and FCA3542 antibodies were ruthenylated with TAG-NHS Ester (Igen Inc., Gaithersburg, Md.). Aβ(x-40) was detected with biotinylated 4G8 and ruthenylated G2-10. Aβ(x-42) was detected with biotinylated 4G8 and ruthenylated FCA3542.

Compound	inhibition of the activity of the γ secretase complex containing presenilin-1 or presenilin-2 ([1]; general statement)	block of γ-secretase activity ([1]; pH 7.0 (pH optimum for presenilin-1/presenilin-2 associated γ-secretase), HeLa S3 membranes, FIG. 1)	susceptibility of γ3 protease activity to inhibition ([2]; general statement)	γ-secretase-type activity remaining in the presence of inhibitor (γ3 protease) ([2]; pH 6.0 (pH optimum for γ3 protease), HeLa S3 membranes, FIG. 1)	inhibition of γ-secretase activity associated with presenilins 1 and 2 [3]	inhibition of production of Aβ1-40 by γ3 protease ([4]; FIG. 3A)	inhibition of production of Aβ1-42 by γ3 protease ([4]; FIG. 3B)	inhibition of γ3 protease activity ([4]; general statement (aspartyl class protease))
CC(C)C[C@H](NC(=O)[C@H](Cc1ccccc1)C[C@@H](O)[C@H](Cc1ccccc1)NC(=O)OC(C)(C)C)C(=O)N[C@@H](Cc1ccccc1)C(N)=O [L-685,458, {1S-Benzyl-4-R-[1-(1S-carbamoyl-2-phenylethylcarbamoyl)-1S-3-methylbutylcarbamoyl]-2R-hydroxy-5-phenylpentyl}carbamic acid tert-butyl ester]	inhibited	essentially completely block	not susceptible to inhibition	significant γ-secretase activity remains	essentially completely inhibit			
CC(C)CC(=O)N[C@H](C(=O)N[C@H](C(=O)N[C@@H](CC(C)C)[C@@H](O)CC(=O)N[C@@H](C)C(=O)N[C@@H](CC(C)C)[C@@H](O)CC(=O)O)C(C)C)C(C)C [pepstatin A] (Isovaleryl-VV[Sta]A[Sta]-OH)						inhibits	inhibits	inhibited
